{"source": "patent US11780839B2", "about": "“Compounds for treating Huntington's disease” (PTC THERAPEUTICS, INC., priority 2018, dated 2023)", "test_system": "Endogenous Huntingtin Protein", "test": "Endogenous Huntingtin Protein Assay (ELISA-based Meso Scale Discovery electrochemiluminescence)", "format": "cell-based", "details": "MSD electrochemiluminescence, Table 1", "protocol": "Compounds of Formula (I) or Formula (II) were tested using the Meso Scale Discovery (MSD) Assay provided in International Application No. PCT/US2016/066042, filed on Dec. 11, 2016 and claiming priority to U.S. Provisional Application 62/265,652 filed on Dec. 10, 2015, the entire contents of which are incorporated herein by reference.\nThe Endogenous Huntingtin Protein assay used in Example 1 was developed using the ELISA-based MSD electrochemiluminescence assay platform.\nEndogenous Huntingtin Protein Assay\nMeso Scale Discovery (MSD) 96-well or 384-well plates were coated overnight at 4° C. with MW1 (expanded polyglutamine) or MAB2166 monoclonal antibody (for capture) at a concentration of 1 μg/mL in PBS (30 μL per well). Plates were then washed three times with 300 μL wash buffer (0.05% Tween-20 in PBS) and blocked (100 μL blocking buffer; 5% BSA in PBS) for 4-5 hours at room temperature with rotational shaking and then washed three times with wash buffer.\nSamples (25 μL) were transferred to the antibody-coated MSD plate and incubated overnight at 4° C. After removal of the lysates, the plate was washed three times with wash buffer, and 25 μL of #5656S (Cell signaling; rabbit monoclonal) secondary antibody (diluted to 0.25 μg/mL in 0.05% Tween-20 in blocking buffer) was added to each well and incubated with shaking for 1 Hour at room temperature. Following incubation with the secondary antibody, the wells were rinsed with wash buffer after which 25 μL of goat anti-rabbit SULFO TAG secondary detection antibody (required aspect of the MSD system) (diluted to 0.25 μg/mL in 0.05% Tween-20 in blocking buffer) was added to each well and incubated with shaking for 1 hour at room temperature. After rinsing three times with wash buffer, 150 μL of read buffer T with surfactant (MSD) were added to each empty well, and the plate was imaged on a SI 6000 imager (MSD) according to manufacturers' instructions provided for 96- or 384-well plates."}
{"smiles": "CC(=O)c1cnn(-c2ccc(-c3cnc(N(C)C4CC(C)(C)NC(C)(C)C4)nn3)c(O)c2)c1", "note": "[Cpd 68, 1-[1-(3-hydroxy-4-{3-[methyl(2,2,6,6-tetramethylpiperidin-4-yl)amino]-1,2,4-triazin-6-yl}phenyl)-1H-pyrazol-4-yl]ethan-l-one]", "values": [{"measurement": "IC50", "value": "≤ 0.1", "unit": "µM"}]}
{"smiles": "Cc1cnn(-c2ccc(-c3cnc(N(C)C4CC(C)(C)NC(C)(C)C4)nn3)c(O)c2)n1", "note": "[Cpd 69, 2-{3-[methyl(2,2,6,6-tetramethylpiperidin-4-yl)amino]-1,2,4-triazin-6-yl}-5-(4-methyl-2H-1,2,3-triazol-2-yl)phenol]", "values": [{"measurement": "IC50", "value": "≤ 0.1", "unit": "µM"}]}
{"smiles": "CN(c1ncc(-c2ccc(-c3cccnc3)cc2O)nn1)C1CC(C)(C)NC(C)(C)C1", "note": "[Cpd 70, 2-{3-[methyl(2,2,6,6-tetramethylpiperidin-4-yl)amino]-1,2,4-triazin-6-yl}-5-(pyridin-3-yl)phenol]", "values": [{"measurement": "IC50", "value": "0.1 to 0.5", "unit": "µM"}]}
{"smiles": "CN(c1ncc(-c2ccc(-c3ccccn3)cc2O)nn1)C1CC(C)(C)NC(C)(C)C1", "note": "[Cpd 71, 2-{3-[methyl(2,2,6,6-tetramethylpiperidin-4-yl)amino]-1,2,4-triazin-6-yl}-5-(pyridin-2-yl)phenol]", "values": [{"measurement": "IC50", "value": "≤ 0.1", "unit": "µM"}]}
{"smiles": "CC1(C)CC(Oc2ncc(-c3ccc(-c4c[nH]nc4F)cc3O)nn2)CC(C)(C)N1", "note": "[Cpd 72, 5-(3-fluoro-1H-pyrazol-4-yl)-2-{3-[(2,2,6,6-tetramethylpiperidin-4-yl)oxy]-1,2,4-triazin-6-yl}phenol]", "values": [{"measurement": "IC50", "value": "≤ 0.1", "unit": "µM"}]}
{"smiles": "CC1(C)CC(Nc2ncc(-c3ccc(-c4c[nH]nc4F)cc3O)nn2)CC(C)(C)N1", "note": "[Cpd 73, 5-(3-fluoro-1H-pyrazol-4-yl)-2-{3-[(2,2,6,6-tetramethylpiperidin-4-yl)amino]-1,2,4-triazin-6-yl}phenol]", "values": [{"measurement": "IC50", "value": "≤ 0.1", "unit": "µM"}]}
{"smiles": "Cc1ncc(-c2ccc(-c3cnc(N(C)C4CC(C)(C)NC(C)(C)C4)nn3)c(O)c2)o1", "note": "[Cpd 74, 5-(2-methyl-1,3-oxazol-5-yl)-2-{3-[methyl(2,2,6,6-tetramethylpiperidin-4-yl)amino]-1,2,4-triazin-6-yl}phenol]", "values": [{"measurement": "IC50", "value": "≤ 0.1", "unit": "µM"}]}
{"smiles": "CN(c1ncc(-c2ccc(-c3cn(C)cn3)cc2O)nn1)C1CC(C)(C)NC(C)(C)C1", "note": "[Cpd 75, 5-(1-methyl-1H-imidazol-4-yl)-2-{3-[methyl(2,2,6,6-tetramethylpiperidin-4-yl)amino]-1,2,4-triazin-6-yl}phenol]", "values": [{"measurement": "IC50", "value": "> 0.5", "unit": "µM"}]}
{"smiles": "CN(c1ncc(-c2ccc(-c3ccn(C)n3)cc2O)nn1)C1CC(C)(C)NC(C)(C)C1", "note": "[Cpd 76, 5-(1-methyl-1H-pyrazol-3-yl)-2-{3-[methyl(2,2,6,6-tetramethylpiperidin-4-yl)amino]-1,2,4-triazin-6-yl}phenol]", "values": [{"measurement": "IC50", "value": "≤ 0.1", "unit": "µM"}]}
{"smiles": "CN1[C@@H]2CCC[C@H]1CC(Nc1ncc(-c3ccc(-c4cn[nH]c4)cc3O)nn1)C2", "note": "(stereo partly drawn) [Cpd 77, 2-{3-{[(1R,3s,5S)-9-methyl-9-azabicyclo[3.3.1]nonan-3-yl]amino}-1,2,4-triazin-6-yl)-5-(1H-pyrazol-4-yl)phenol]", "values": [{"measurement": "IC50", "value": "≤ 0.1", "unit": "µM"}]}
{"smiles": "Oc1cc(-c2cn[nH]c2)ccc1-c1cnc(NC2C[C@H]3CC[C@@H](C2)N3)nn1", "note": "(some centres unmarked) [Cpd 78]", "values": [{"measurement": "IC50", "value": "≤ 0.1", "unit": "µM"}]}
{"smiles": "CN(c1ncc(-c2ccc(-n3cncn3)cc2O)nn1)C1CC(C)(C)NC(C)(C)C1", "note": "[Cpd 79, 2-{3-[methyl(2,2,6,6-tetramethylpiperidin-4-yl)amino]-1,2,4-triazin-6-yl}-5-(1H-1,2,4-triazol-1-yl)phenol]", "values": [{"measurement": "IC50", "value": "≤ 0.1", "unit": "µM"}]}
{"smiles": "CN(c1ncc(-c2ccc(-c3cn4ccnc4cn3)cc2O)nn1)C1CC(C)(C)NC(C)(C)C1", "note": "[Cpd 80, 5-(imidazo[1,2-a]pyrazin-6-yl)-2-{3-[methyl(2,2,6,6-tetramethylpiperidin-4-yl)amino]-1,2,4-triazin-6-yl}phenol]", "values": [{"measurement": "IC50", "value": "≤ 0.1", "unit": "µM"}]}
{"smiles": "Cc1nnc(-c2ccc(-c3cnc(N(C)C4CC(C)(C)NC(C)(C)C4)nn3)c(O)c2)o1", "note": "[Cpd 81, 5-(5-methyl-1,3,4-oxadiazol-2-yl)-2-{3-[methyl(2,2,6,6-tetramethylpiperidin-4-yl)amino]-1,2,4-triazin-6-yl}phenol]", "values": [{"measurement": "IC50", "value": "≤ 0.1", "unit": "µM"}]}
{"smiles": "CC1CC(Oc2ncc(-c3ccc(-c4cn[nH]c4)cc3O)nn2)CC(C)N1", "note": "(centres unmarked) [Cpd 82, 2-{3-[(2,6-dimethylpiperidin-4-yl)oxy]-1,2,4-triazin-6-yl}-5-(1H-pyrazol-4-yl)phenol]", "values": [{"measurement": "IC50", "value": "0.1 to 0.5", "unit": "µM"}]}
{"smiles": "CN(c1ncc(-c2ccc(-c3cnccn3)cc2O)nn1)C1CC(C)(C)NC(C)(C)C1", "note": "[Cpd 83, 2-{3-[methyl(2,2,6,6-tetramethylpiperidin-4-yl)amino]-1,2,4-triazin-6-yl}-5-(pyrazin-2-yl)phenol]", "values": [{"measurement": "IC50", "value": "≤ 0.1", "unit": "µM"}]}
{"smiles": "CN(c1ncc(-c2ccc(-c3cccnn3)cc2O)nn1)C1CC(C)(C)NC(C)(C)C1", "note": "[Cpd 84, 2-{3-[methyl(2,2,6,6-tetramethylpiperidin-4-yl)amino]-1,2,4-triazin-6-yl}-5-(pyridazin-3-yl)phenol]", "values": [{"measurement": "IC50", "value": "≤ 0.1", "unit": "µM"}]}
{"smiles": "CN(c1ncc(-c2ccc(-c3ncccn3)cc2O)nn1)C1CC(C)(C)NC(C)(C)C1", "note": "[Cpd 85, 2-{3-[methyl(2,2,6,6-tetramethylpiperidin-4-yl)amino]-1,2,4-triazin-6-yl}-5-(pyrimidin-2-yl)phenol]", "values": [{"measurement": "IC50", "value": "≤ 0.1", "unit": "µM"}]}
{"smiles": "CN(c1ncc(-c2ccc(-c3cncnc3)cc2O)nn1)C1CC(C)(C)NC(C)(C)C1", "note": "[Cpd 86, 2-{3-[methyl(2,2,6,6-tetramethylpiperidin-4-yl)amino]-1,2,4-triazin-6-yl}-5-(pyrimidin-5-yl)phenol]", "values": [{"measurement": "IC50", "value": "0.1 to 0.5", "unit": "µM"}]}
{"smiles": "CN(c1ncc(-c2ccc(-c3cn[nH]c3)cc2O)nn1)C1C[C@H]2CCC[C@@H](C1)N2C", "note": "(stereo partly drawn) [Cpd 87, 2-(3-{methyl[(1R,3s,5S)-9-methyl-9-azabicyclo[3.3.1]nonan-3-yl]amino}-1,2,4-triazin-6-yl)-5-(1H-pyrazol-4-yl)phenol]", "values": [{"measurement": "IC50", "value": "≤ 0.1", "unit": "µM"}]}
{"smiles": "COc1ncnc(-c2ccc(-c3cnc(N(C)C4CC(C)(C)NC(C)(C)C4)nn3)c(O)c2)n1", "note": "[Cpd 88, 5-(4-methoxy-1,3,5-triazin-2-yl)-2-{3-[methyl(2,2,6,6-tetramethylpiperidin-4-yl)amino]-1,2,4-triazin-6-yl}phenol]", "values": [{"measurement": "IC50", "value": "≤ 0.1", "unit": "µM"}]}
{"smiles": "CN(c1ncc(-c2ccc(-n3ccnc3)cc2O)nn1)C1CC(C)(C)NC(C)(C)C1", "note": "[Cpd 89, 5-(1H-imidazol-1-yl)-2-{3-[methyl(2,2,6,6-tetramethylpiperidin-4-yl)amino]-1,2,4-triazin-6-yl}phenol]", "values": [{"measurement": "IC50", "value": "≤ 0.1", "unit": "µM"}]}
{"smiles": "CN(c1ncc(-c2ccc(-n3cc(O)cn3)cc2O)nn1)C1CC(C)(C)NC(C)(C)C1", "note": "[Cpd 90, 1-(3-hydroxy-4-{3-[methyl(2,2,6,6-tetramethylpiperidin-4-yl)amino]-1,2,4-triazin-6-yl}phenyl)-1H-pyrazol-4-ol]", "values": [{"measurement": "IC50", "value": "≤ 0.1", "unit": "µM"}]}
{"smiles": "CN(c1ncc(-c2ccc(-c3cnco3)cc2O)nn1)C1CC(C)(C)NC(C)(C)C1", "note": "[Cpd 91, 2-{3-[methyl(2,2,6,6-tetramethylpiperidin-4-yl)amino]-1,2,4-triazin-6-yl}-5-(1,3-oxazol-5-yl)phenol]", "values": [{"measurement": "IC50", "value": "≤ 0.1", "unit": "µM"}]}
{"smiles": "CN(c1ncc(-c2ccc(-c3ccc4nccn4n3)cc2O)nn1)C1CC(C)(C)NC(C)(C)C1", "note": "[Cpd 92, 5-(imidazo[1,2-b]pyridazin-6-yl)-2-{3-[methyl(2,2,6,6-tetramethylpiperidin-4-yl)amino]-1,2,4-triazin-6-yl}phenol]", "values": [{"measurement": "IC50", "value": "≤ 0.1", "unit": "µM"}]}
{"smiles": "CN(c1ncc(-c2ccc(-n3cc(F)cn3)cc2O)nn1)C1CC(C)(C)NC(C)(C)C1", "note": "[Cpd 93, 5-(4-fluoro-1H-pyrazol-1-yl)-2-{3-[methyl(2,2,6,6-tetramethylpiperidin-4-yl)amino]-1,2,4-triazin-6-yl}phenol]", "values": [{"measurement": "IC50", "value": "≤ 0.1", "unit": "µM"}]}
{"smiles": "Cc1cnn(-c2ccc(-c3cnc(N(C)C4CC(C)(C)NC(C)(C)C4)nn3)c(O)c2)c1", "note": "[Cpd 94, 5-(4-methyl-1H-pyrazol-1-yl)-2-{3-[methyl(2,2,6,6-tetramethylpiperidin-4-yl)amino]-1,2,4-triazin-6-yl}phenol]", "values": [{"measurement": "IC50", "value": "0.1 to 0.5", "unit": "µM"}]}
{"smiles": "Oc1cc(-c2cn[nH]c2)ccc1-c1cnc(N2CCC3(CC2)CNC3)nn1", "note": "[Cpd 95, 2-[3-(2,7-diazaspiro[3.5]nonan-7-yl)-1,2,4-triazin-6-yl]-5-(1H-pyrazol-4-yl)phenol]", "values": [{"measurement": "IC50", "value": "0.1 to 0.5", "unit": "µM"}]}
{"smiles": "Oc1cc(-c2cn[nH]c2)ccc1-c1cnc(N2CC3(CCNCC3)C2)nn1", "note": "[Cpd 96, 2-[3-(2,7-diazaspiro[3.5]nonan-2-yl)-1,2,4-triazin-6-yl]-5-(1H-pyrazol-4-yl)phenol]", "values": [{"measurement": "IC50", "value": "≤ 0.1", "unit": "µM"}]}
{"smiles": "CN(c1ncc(-c2ccc(-c3ccc4[nH]ncc4c3)cc2O)nn1)C1CC(C)(C)NC(C)(C)C1", "note": "[Cpd 97, 5-(1H-indazol-5-yl)-2-{3-[methyl(2,2,6,6-tetramethylpiperidin-4-yl)amino]-1,2,4-triazin-6-yl}phenol]", "values": [{"measurement": "IC50", "value": "≤ 0.1", "unit": "µM"}]}
{"smiles": "CN(c1ncc(-c2ccc(-c3cc(F)ccn3)cc2O)nn1)C1CC(C)(C)NC(C)(C)C1", "note": "[Cpd 98, 5-(4-fluoropyridin-2-yl)-2-{3-[methyl(2,2,6,6-tetramethylpiperidin-4-yl)amino]-1,2,4-triazin-6-yl}phenol]", "values": [{"measurement": "IC50", "value": "0.1 to 0.5", "unit": "µM"}]}
{"smiles": "CN(c1ncc(-c2ccc(-n3ncc([N+](=O)[O-])n3)cc2O)nn1)C1CC(C)(C)NC(C)(C)C1", "note": "[Cpd 99, 2-{3-[methyl(2,2,6,6-tetramethylpiperidin-4-yl)amino]-1,2,4-triazin-6-yl}-5-(4-nitro-2H-1,2,3-triazol-2-yl)phenol]", "values": [{"measurement": "IC50", "value": "≤ 0.1", "unit": "µM"}]}
